In patent publication US20240335452A1, “COMPOSITIONS AND METHODS OF COMBINATION THERAPY FOR TARGETING LYMPHOMA” (Cullgen (Shanghai), Inc., priority 2021, published 2024):
Entries after “also recorded” stand apart in the source; their conditions may differ. One block for each molecule: values may come before it.

Tests used:
Type in all cases: cell-based, human
OCI-LY7 cells = experiment: Cell viability assay (CellTiter-Glo) in OCI-LY7 cells; settings: for cell viability, response of the cells to the single agent: OCI-LY7, single agent, 5 days; for IC50: Homo sapiens, 120 h, OCI-LY7 cells (EZH2-wild type), in the presence of 1 μM EPZ-6438, 5 days; for cell viability of the combination versus the compound alone (FIG. 2B, 2D): OCI-LY7, combination with any of CC-122, CC-220, or CC-92480 (so in the source)
Experimental: (§1) Experiments were performed in cultured human cells to assess the efficacy of combined EZH2 inhibitor and immunomodulatory drug (e.g., an IMiD) treatment using an EZH2-mutant DLBCL cell line, SU-DHL-10, and an EZH2-wild type line, OCI-LY7. Cells were purchased from Nanjing Cobioer Biotechnology. SU-DHL-10 and OCI-LY7 cells were cultured at 37° C. with 5% CO2 in RPMI 1640 Medium supplemented with 10% fetal bovine serum. Cells were authenticated using the short tandem repeat (STR) assays. Mycoplasma test results were negative.
(§2) The cultured cells were seeded at a density of 5000 cells per well in 96-well assay plates and treated with test compounds at 10 μM followed by a 11-point 3-fold serial dilution or an 8-point 10-fold serial dilution. Cell viability was determined after 5 days, using the CellTiter-Glo assay kit (Promega) according to the manufacturer's instructions. The dose-response curves were determined and IC50 values were calculated using the GraphPad Prism software following a nonlinear regression (least squares fit) method. Each data point in the figure represents the mean values of at least two technical replicates ± standard deviation.
(§3) Cells were treated with EZH2 inhibitors in the presence of IMiDs at concentrations sufficient to induce degradation of IKZF1 and IKZF3 but not enough to kill cells. CC-122 and CC-220 were tested at a concentration of 1 μM; CC-92480 and CFT7455 were tested at a concentration of 1 nM; and CC-99282 was tested at a concentration of 10 nM.

SU-DHL-10 cells [1] = experiment: Cell viability assay (CellTiter-Glo) in SU-DHL-10 cells
SU-DHL-10 cells [2] = experiment: as above; settings: for cell viability, response of the cells to the single agent: SU-DHL-10, single agent; for IC50: Homo sapiens, SU-DHL10, 120 h, SU-DHL-10 cells (EZH2-mutant DLBCL), in the presence of 1 μM EPZ-6438, 5 days; for cell viability of the combination versus the compound alone (FIG. 2A, 2C): SU-DHL-10, combination with any of CC-122, CC-220, or CC-92480 (so in the source)
Experimental: as §1, §2, §3

[3] = OCI-LY7, in the presence of 1 nM CC-92480, 5 days
[4] = OCI-LY7, in the presence of 1 μM CC-122, 5 days
[5] = OCI-LY7, in the presence of 1 μM CC-220, 5 days
[6] = SU-DHL-10, in the presence of 1 nM CC-92480, 5 days
[7] = SU-DHL-10, in the presence of 1 μM CC-122, 5 days
[8] = SU-DHL-10, in the presence of 1 μM CC-220, 5 days
[9] = OCI-LY7, in the presence of 1 μM C24, 5 days
[10] = OCI-LY7, in the presence of 1 μM CPI-1205, 5 days
[11] = OCI-LY7, in the presence of 1 μM EPZ-6438, 5 days
[12] = OCI-LY7, in the presence of 1 μM GSK126, 5 days
[13] = SU-DHL-10, in the presence of 1 μM CPI-1205, 5 days
[14] = SU-DHL-10, in the presence of 1 μM EPZ-6438, 5 days
[15] = SU-DHL-10, in the presence of 1 μM GSK126, 5 days
[16] = SU-DHL-10, in the presence of C24 (1 μM with CC-122, 2 μM with CC-220), 5 days
[17] = OCI-LY7, in the presence of 1 nM CFT7455, 5 days
[18] = OCI-LY7, in the presence of 10 nM CC-99282, 5 days
[19] = SU-DHL-10, in the presence of 1 nM CFT7455, 5 days
[20] = SU-DHL-10, in the presence of 10 nM CC-99282, 5 days

SMILES: O=C1CC[C@H](N2C(=O)c3cccc(NCc4ccc(CN5CC(N6CCOCC6)C5)cc4F)c3C2=O)C(=O)N1 [CC-99282, (S)-2-(2,6-dioxopiperidin-3-yl)-4-((2-fluoro-4-((3-morpholinoazetidin-1-yl)methyl)benzyl)amino)isoindoline-1,3-dione]
cell viability (sensitivity of the cells to the compound in combination) (OCI-LY7 cells; OCI-LY7, in the presence of 100 nM CPI-0209): lowered cell viability more than treatment with CC-99282 alone
cell viability (sensitivity of the cells to the compound in combination) (OCI-LY7 cells; OCI-LY7, in the presence of 100 nM SHR2554): lowered cell viability more than treatment with CC-99282 alone
cell viability, response of the cells to the single agent (OCI-LY7 cells): moderately responsive
cell viability (sensitivity of the cells to the compound in combination) (SU-DHL-10 cells [1]; SU-DHL-10, in the presence of 100 nM CPI-0209): lowered cell viability more than treatment with CC-99282 alone
cell viability (sensitivity of the cells to the compound in combination) (SU-DHL-10 cells [1]; SU-DHL-10, in the presence of 100 nM SHR2554): lowered cell viability more than treatment with CC-99282 alone
cell viability, response of the cells to the single agent (SU-DHL-10 cells [2]; 5 days): moderately responsive

SMILES: CC[C@H](C)n1cc(C)c2c(C(=O)NCc3c(C)cc(C)[nH]c3=O)cc(-c3ccc(N4CCNCC4)nc3)cc21 [GSK126, (S)-1-(sec-butyl)-N-((4,6-dimethyl-2-oxo-1,2-dihydropyridin-3-yl)methyl)-3-methyl-6-(6-(piperazin-1-yl)pyridin-3-yl)-1H-indole-4-carboxamide]
cell viability (sensitivity of the cells to the compound in combination) (OCI-LY7 cells; [3]): highly sensitive; also recorded: lowered cell viability more than treatment with GSK126 alone
cell viability (sensitivity of the cells to the compound in combination) (OCI-LY7 cells; [4]): highly sensitive; also recorded: lowered cell viability more than treatment with GSK126 alone
cell viability (sensitivity of the cells to the compound in combination) (OCI-LY7 cells; [5]): highly sensitive; also recorded: lowered cell viability more than treatment with GSK126 alone
cell viability (sensitivity of the cells to the compound in combination) (SU-DHL-10 cells [2]; [6]): highly sensitive; also recorded: lowered cell viability more than treatment with GSK126 alone
cell viability (sensitivity of the cells to the compound in combination) (SU-DHL-10 cells [2]; [7]): highly sensitive; also recorded: lowered cell viability more than treatment with GSK126 alone
cell viability (sensitivity of the cells to the compound in combination) (SU-DHL-10 cells [2]; [8]): highly sensitive; also recorded: lowered cell viability more than treatment with GSK126 alone

IC50 (OCI-LY7 cells): 0.38 µM
IC50 (SU-DHL-10 cells [2]): 0.089 µM
SMILES: Cc1nc2cccc(N)c2c(=O)n1C1CCC(=O)NC1=O (stereo not shown) [CC-122, avadomide]
cell viability of the combination versus the compound alone (FIG. 2B, 2D) (OCI-LY7 cells): lowered cell viability more than treatment with CC-122 alone
cell viability (sensitivity of the cells to the compound in combination) (OCI-LY7 cells; [9]): highly sensitive
cell viability (sensitivity of the cells to the compound in combination) (OCI-LY7 cells; [10]): highly sensitive
cell viability (sensitivity of the cells to the compound in combination) (OCI-LY7 cells; [11]): highly sensitive
cell viability (sensitivity of the cells to the compound in combination) (OCI-LY7 cells; [12]): highly sensitive
cell viability, response of the cells to the single agent (OCI-LY7 cells): modestly responsive
cell viability of the combination versus the compound alone (FIG. 2A, 2C) (SU-DHL-10 cells [2]): lowered cell viability more than treatment with CC-122 alone
cell viability (sensitivity of the cells to the compound in combination) (SU-DHL-10 cells [2]; [13]): highly sensitive
cell viability (sensitivity of the cells to the compound in combination) (SU-DHL-10 cells [2]; [14]): highly sensitive
cell viability (sensitivity of the cells to the compound in combination) (SU-DHL-10 cells [2]; [15]): highly sensitive
cell viability (sensitivity of the cells to the compound in combination) (SU-DHL-10 cells [2]; [16]): highly sensitive
cell viability, response of the cells to the single agent (SU-DHL-10 cells [2]; 5 days): refractory

SMILES: COc1cc(C)[nH]c(=O)c1CNC(=O)c1c(C)n([C@H](C)C2CCN(CC(F)(F)F)CC2)c2ccccc12 [CPI-1205, lirametostat]
cell viability (sensitivity of the cells to the compound in combination) (OCI-LY7 cells; [3]): highly sensitive; also recorded: lowered cell viability more than treatment with CPI-1205 alone
cell viability (sensitivity of the cells to the compound in combination) (OCI-LY7 cells; [4]): highly sensitive; also recorded: lowered cell viability more than treatment with CPI-1205 alone
cell viability (sensitivity of the cells to the compound in combination) (OCI-LY7 cells; [5]): highly sensitive; also recorded: lowered cell viability more than treatment with CPI-1205 alone
cell viability (sensitivity of the cells to the compound in combination) (SU-DHL-10 cells [2]; [6]): highly sensitive; also recorded: lowered cell viability more than treatment with CPI-1205 alone
cell viability (sensitivity of the cells to the compound in combination) (SU-DHL-10 cells [2]; [7]): highly sensitive; also recorded: lowered cell viability more than treatment with CPI-1205 alone
cell viability (sensitivity of the cells to the compound in combination) (SU-DHL-10 cells [2]; [8]): highly sensitive; also recorded: lowered cell viability more than treatment with CPI-1205 alone

SMILES: CCc1c(N(CC)C2CCOCC2)cc2oc(CN3CCCCC3)cc2c1C(=O)NCc1c(C)cc(C)[nH]c1=O [SHR2554, N-((4,6-dimethyl-2-oxo-1,2-dihydropyridin-3-yl)methyl)-5-ethyl-6-(ethyl(tetrahydro-2H-pyran-4-yl)amino)-2-(piperidin-1-ylmethyl)benzofuran-4-carboxamide]
cell viability (sensitivity of the cells to the compound in combination) (OCI-LY7 cells; [17]): highly sensitive; also recorded: lowered cell viability more than treatment with SHR2554 alone
cell viability (sensitivity of the cells to the compound in combination) (OCI-LY7 cells; [18]): highly sensitive; also recorded: lowered cell viability more than treatment with SHR2554 alone
cell viability, response of the cells to the single agent (OCI-LY7 cells): refractory
cell viability (sensitivity of the cells to the compound in combination) (SU-DHL-10 cells [2]; [19]): highly sensitive; also recorded: lowered cell viability more than treatment with SHR2554 alone
cell viability (sensitivity of the cells to the compound in combination) (SU-DHL-10 cells [2]; [20]): highly sensitive; also recorded: lowered cell viability more than treatment with SHR2554 alone
cell viability, response of the cells to the single agent (SU-DHL-10 cells [2]; 5 days): modestly responsive

IC50 (OCI-LY7 cells): 0.03 µM
IC50 (SU-DHL-10 cells [2]): 0.0095 µM
SMILES: O=C1CC[C@H](N2Cc3c(OCc4ccc(CN5CCOCC5)cc4)cccc3C2=O)C(=O)N1 [CC-220, iberdomide]
cell viability of the combination versus the compound alone (FIG. 2B, 2D) (OCI-LY7 cells): lowered cell viability more than treatment with CC-220 alone
cell viability (sensitivity of the cells to the compound in combination) (OCI-LY7 cells; [9]): highly sensitive
cell viability (sensitivity of the cells to the compound in combination) (OCI-LY7 cells; [10]): highly sensitive
cell viability (sensitivity of the cells to the compound in combination) (OCI-LY7 cells; [11]): highly sensitive
cell viability (sensitivity of the cells to the compound in combination) (OCI-LY7 cells; [12]): highly sensitive
cell viability, response of the cells to the single agent (OCI-LY7 cells): modestly responsive
cell viability of the combination versus the compound alone (FIG. 2A, 2C) (SU-DHL-10 cells [2]): lowered cell viability more than treatment with CC-220 alone
cell viability (sensitivity of the cells to the compound in combination) (SU-DHL-10 cells [2]; [13]): highly sensitive
cell viability (sensitivity of the cells to the compound in combination) (SU-DHL-10 cells [2]; [14]): highly sensitive
cell viability (sensitivity of the cells to the compound in combination) (SU-DHL-10 cells [2]; [15]): highly sensitive
cell viability (sensitivity of the cells to the compound in combination) (SU-DHL-10 cells [2]; [16]): highly sensitive
cell viability, response of the cells to the single agent (SU-DHL-10 cells [2]; 5 days): refractory

SMILES: COC1CN(C2CCC([C@@]3(C)Oc4c(Cl)cc(C(=O)NCc5c(SC)cc(C)[nH]c5=O)c(C)c4O3)CC2)C1 (stereo partly drawn) [CPI-0209, (2R)-7-chloro-2-(4-(3-methoxyazetidin-1-yl)cyclohexyl)-2,4-dimethyl-N-((6-methyl-4-(methylthio)-2-oxo-1,2-dihydropyridin-3-yl)methyl)benzo[d][1,3]dioxole-5-carboxamide]
cell viability (sensitivity of the cells to the compound in combination) (OCI-LY7 cells; [17]): highly sensitive; also recorded: lowered cell viability more than treatment with CPI-0209 alone
cell viability (sensitivity of the cells to the compound in combination) (OCI-LY7 cells; [18]): highly sensitive; also recorded: lowered cell viability more than treatment with CPI-0209 alone
cell viability, response of the cells to the single agent (OCI-LY7 cells): modestly responsive
cell viability (sensitivity of the cells to the compound in combination) (SU-DHL-10 cells [2]; [19]): highly sensitive; also recorded: lowered cell viability more than treatment with CPI-0209 alone
cell viability (sensitivity of the cells to the compound in combination) (SU-DHL-10 cells [2]; [20]): highly sensitive; also recorded: lowered cell viability more than treatment with CPI-0209 alone
cell viability, response of the cells to the single agent (SU-DHL-10 cells [2]; 5 days): moderately responsive
